Drawing on US12514251B2, “Fused heterocyclic compounds and their use as pest control agents” (priority 2020, dated 2026), this text covers mortality for 18 compounds.

Holding throughout (assay type): in vivo
One test has as its system Nilaparvata lugens. Nature of the test: Nilaparvata lugens, seedling dip method. The settings on record: paddy seedling dip, third instar nymphs, 72 h after release, dead + moribund vs untreated control, read-out: percent mortality. The protocol: The seedling dip method was used for testing, wherein the required quantity of the compound was weighed and dissolved in a tube containing solvent solution. The tube was put on a vortex at 2000 rpm for 90 min for proper mixing, then diluted with 0.01% Triton-X solution to the desired test concentration.
Paddy seedlings were dipped in the compound solution for 10 seconds, shade dried for 20 min and then the seedlings were placed in glass test tubes with the roots kept in water. 15 third instar nymphs were released into each test tube and the tubes were kept in a plant growth chamber at a temperature of 25° C. and relative humidity of 75%. Observations on dead, moribund and alive nymphs were recorded 72 h after the release. Percent mortality was calculated by combining dead and moribund nymphs and comparing the result to the one of the untreated control.

In another test the test system is Helicoverpa armigera. The test can be described thus: Helicoverpa armigera, diet incorporation method. The settings on record: third instar larvae, 96 h after release, dead + moribund vs untreated control, read-out: percent mortality. The method, then: (§1) The diet incorporation method was used, in which the required quantity of the test compound was weighed and dissolved in a tube containing solvent solution. The tube was put on a vortex at 2000 rpm for 90 min for proper mixing. Semi-synthetic diet was incorporated into this solution when the temperature was approximately 50° C. in the bioassay containers. Compound and diet were stirred thoroughly for proper mixing and allowed to cool for 30 min. The solidified diet was cut into equal pieces, and then each piece was transferred into one cell of a bio-assay tray. A single starved third instar larva was released into each of the cells of the bioassay trays and the tray was covered with a lid. The bio-assay trays were then kept under laboratory conditions at a temperature of 25° C. and a relative humidity of 70%. Observations on dead, moribund and alive larvae were recorded 96 h after the release of the larvae. Percent mortality was calculated by combining dead and moribund larvae and comparing the result to the one of the untreated control.

For the next test, the system named is Plutella xylostella. Nature of the test: Plutella xylostella, leaf dip method. The settings on record: foliar, cabbage leaf dip, second instar larvae, 72 h after release, dead + moribund vs untreated control, read-out: percent mortality. The method, boiled down: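 Cabbage leaves were dipped for 10 s in compound diluted with 0.01% Triton-X, shade dried and offered singly to second instar larvae. Trays were held at 25° C. and 70% relative humidity. Dead plus moribund larvae were scored at 72 h, and percent mortality was expressed relative to untreated control.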

In another test the test system is Myzus persicae. Nature of the test: Myzus persicae, leaf dip method. The settings on record: foliar, capsicum leaf dip, third instar nymphs, 72 h after release, dead + moribund vs untreated control, read-out: percent mortality. The protocol: The leaf dip method was used for testing, wherein the required quantity of the compound was weighed and dissolved in a tube containing solvent solution. The tube was put on a vortex at 2000 rpm for 90 min for proper mixing, then diluted with 0.01% Triton-X solution to the desired test concentration. Capsicum leaves were dipped in the compound solution for 10 seconds, shade dried for 20 min and then placed, with the abaxial side of the leaf up, in single cells of a bio-assay tray containing 4 ml of a 1% agar-agar solution. Known numbers of third instar nymphs, collected in petri plates, were released into the cell with the treated leaf and the cell was covered with a perforated lid for better aeration. The trays were kept in a plant growth chamber at a temperature of 25° C. and a relative humidity of 70%. Observations on dead, moribund and alive nymphs were recorded 72 h after the release. Percent mortality was calculated by combining dead and moribund nymphs and comparing the result with the one of the untreated control.

For the next test, the system named is Spodoptera litura. Nature of the test: Spodoptera litura, diet incorporation method. The settings on record: third instar larvae, 96 h after release, dead + moribund vs untreated control, read-out: percent mortality. The method, then: as §1, with “covered with the lid. The” for “covered with a lid. The”, “release of larvae. Percent” for “release of the larvae. Percent”

`CCS(=O)(=O)c1ccc(N(C)C)nc1-c1ccn2nc(C(F)(F)F)cc2n1` [Compound 166, 5-(ethylsulfonyl)-N,N-dimethyl-6-(2-(trifluoromethyl)pyrazolo[1,5-a]pyrimidin-5-yl)pyridin-2-amine]: the mortality at 300 ppm with Nilaparvata lugens, in the test with Helicoverpa armigera and with Plutella xylostella was at least 70% each time.
As to `CCS(=O)(=O)c1ccc(NC)nc1-c1ccn2nc(C(F)(F)F)cc2n1` [Compound 167, 5-(ethylsulfonyl)-N-methyl-6-(2-(trifluoromethyl)pyrazolo[1,5-a]pyrimidin-5-yl)pyridin-2-amine], the mortality at 300 ppm in the test on Nilaparvata lugens, in the test with Plutella xylostella and in the test with Myzus persicae was at least 70% throughout.
As for `CCS(=O)(=O)c1cc(O)cnc1-c1ccn2nc(C(F)(F)F)nc2n1` [Compound 109, 5-(ethylsulfonyl)-6-(2-(trifluoromethyl)-[1,2,4]triazolo[1,5-a]pyrimidin-5-yl)pyridin-3-ol], the mortality – broadly, the percentage killed – at 300 ppm with Myzus persicae was at least 70%.
With `CCS(=O)(=O)c1ccc(-n2nccn2)nc1-c1ccn2nc(C(F)(F)F)cc2n1` [Compound 41, 5-(3-(ethylsulfonyl)-6-(2H-1,2,3-triazol-2-yl)pyridin-2-yl)-2-(trifluoromethyl)pyrazolo[1,5-a]pyrimidine], the mortality at 300 ppm in the test on Nilaparvata lugens, in the test on Helicoverpa armigera and with Plutella xylostella was at least 70% throughout.
`CCCNc1ccc(S(=O)(=O)CC)c(-c2ccn3nc(C(F)(F)F)cc3n2)n1` [Compound 244, 5-(ethylsulfonyl)-N-propyl-6-(2-(trifluoromethyl)pyrazolo[1,5-a]pyrimidin-5-yl)pyridin-2-amine]: the mortality at 300 ppm with Plutella xylostella and with Myzus persicae was at least 70% throughout.
For the compound `CCS(=O)(=O)c1ccc(N(C)C2CC2)nc1-c1ccn2nc(C(F)(F)F)cc2n1` [Compound 168, N-cyclopropyl-5-(ethylsulfonyl)-N-methyl-6-(2-(trifluoromethyl)pyrazolo[1,5-a]pyrimidin-5-yl)pyridin-2-amine], the mortality at 300 ppm in the test with Nilaparvata lugens, with Spodoptera litura and in the test on Plutella xylostella was at least 70% throughout.
`CCS(=O)(=O)c1cccnc1-c1ccn2nc(C(F)(F)F)cc2n1` [Compound 160, 5-(3-(ethylsulfonyl)pyridin-2-yl)-2-(trifluoromethyl)pyrazolo[1,5-a]pyrimidine]: the mortality at 300 ppm in the test with Helicoverpa armigera, in the test on Plutella xylostella and in the test on Myzus persicae was at least 70% in each case.
For the compound `CCS(=O)(=O)c1cc(Br)cnc1-c1ccn2nc(C(F)(F)F)cc2n1` [Compound 29, 5-(5-bromo-3-(ethylsulfonyl)pyridin-2-yl)-2-(trifluoromethyl)pyrazolo[1,5-a]pyrimidine], the mortality at 300 ppm in the test on Helicoverpa armigera, in the test with Spodoptera litura and in the test on Plutella xylostella was at least 70% each time.
As for `CCS(=O)(=O)c1ccc(C)nc1-c1ccn2nc(C(F)(F)F)cc2n1` [Compound 182, 5-(3-(ethylsulfonyl)-6-methylpyridin-2-yl)-2-(trifluoromethyl)pyrazolo[1,5-a]pyrimidine], the mortality at 300 ppm in the test on Nilaparvata lugens, with Plutella xylostella and with Myzus persicae was at least 70% throughout.
In the case of `CCS(=O)(=O)c1ccc(-n2cnc(C(F)(F)F)n2)nc1-c1ccn2nc(C(F)(F)F)cc2n1` [Compound 4, 5-(3-(ethylsulfonyl)-6-(3-(trifluoromethyl)-1H-1,2,4-triazol-1-yl)pyridin-2-yl)-2-(trifluoromethyl)pyrazolo[1,5-a]pyrimidine], the mortality at 300 ppm with Helicoverpa armigera, in the test on Spodoptera litura and with Plutella xylostella was at least 70% each time.
As to `CCS(=O)(=O)c1cc(-c2cc(F)cc(Cl)c2)cnc1-c1ccn2nc(C(F)(F)F)cc2n1` [Compound 111, 5-(5-(3-chloro-5-fluorophenyl)-3-(ethylsulfonyl)pyridin-2-yl)-2-(trifluoromethyl)pyrazolo[1,5-a]pyrimidine], the mortality at 300 ppm in the test with Helicoverpa armigera, in the test with Spodoptera litura and with Plutella xylostella was at least 70% each time.
Take `CCS(=O)(=O)c1cc(-c2ccc(F)c(Cl)c2)cnc1-c1ccn2nc(C(F)(F)F)cc2n1` [Compound 127, 5-(5-(3-chloro-4-fluorophenyl)-3-(ethylsulfonyl)pyridin-2-yl)-2-(trifluoromethyl)pyrazolo[1,5-a]pyrimidine]: the mortality at 300 ppm with Helicoverpa armigera, in the test with Spodoptera litura and in the test with Plutella xylostella was at least 70% throughout.
As to `CCS(=O)(=O)c1cc(-c2ccc(F)cc2)cnc1-c1ccn2nc(C(F)(F)F)cc2n1` [Compound 94, 5-(3-(ethylsulfonyl)-5-(4-fluorophenyl)pyridin-2-yl)-2-(trifluoromethyl)pyrazolo[1,5-a]pyrimidine], the mortality at 300 ppm in the test on Helicoverpa armigera, in the test on Spodoptera litura and with Plutella xylostella was at least 70% throughout.
In the case of `CCSc1cc(Br)cnc1-c1ccnc2cc(C(F)(F)F)nn12` [Compound 11, 7-(5-bromo-3-(ethylthio)pyridin-2-yl)-2-(trifluoromethyl)pyrazolo[1,5-a]pyrimidine], the mortality at 300 ppm in the test on Myzus persicae is at least 70%.
With `CCS(=O)(=O)c1ccc(N)nc1-c1ccn2nc(C(F)(F)F)cc2n1` [Compound 174, 5-(ethylsulfonyl)-6-(2-(trifluoromethyl)pyrazolo[1,5-a]pyrimidin-5-yl)pyridin-2-amine], the mortality at 300 ppm with Nilaparvata lugens and in the test on Plutella xylostella was at least 70% each time.
As to `CCS(=O)(=O)c1ccc(NC2CC2)nc1-c1ccn2nc(C(F)(F)F)cc2n1` [Compound 141, N-cyclopropyl-5-(ethylsulfonyl)-6-(2-(trifluoromethyl)pyrazolo[1,5-a]pyrimidin-5-yl)pyridin-2-amine], the mortality at 300 ppm with Nilaparvata lugens, in the test with Plutella xylostella and in the test with Myzus persicae was at least 70% in each case.
Regarding `CCS(=O)(=O)c1cc(-n2cnc(C)n2)cnc1-c1ncc2nc(C(F)(F)F)n(C)c2n1` [Compound 130, 2-(3-(ethylsulfonyl)-5-(3-methyl-1H-1,2,4-triazol-1-yl)pyridin-2-yl)-9-methyl-8-(trifluoromethyl)-9H-purine], the mortality at 300 ppm in the test on Nilaparvata lugens was at least 70%.
Consider `CCS(=O)(=O)c1cc(OC(C)(C)C(N)=O)cnc1-c1ccn2nc(C(F)(F)F)cc2n1` [Compound 220, 2-((5-(ethylsulfonyl)-6-(2-(trifluoromethyl)pyrazolo[1,5-a]pyrimidin-5-yl)pyridin-3-yl)oxy)-2-methylpropanamide], for which the mortality at 300 ppm with Plutella xylostella and in the test on Myzus persicae was at least 70% throughout.
